Results: patent US20090221653A1, “7-(2-amino-1-hydroxy-ethyl)-4-hydroxybenzothiazol-2(3H)-one-derivatives as beta2 adrenoreceptor agonists” (AstraZeneca AB, priority 2005, published 2009)
Structures can show the parent of a compound that is named as a salt.

Legend:
[1] = molecular target: T1, Adrenergic β2 (Homo sapiens, UniProt P07550); assay: Alternative Adrenergic β2 Mediated cAMP Production in H292 cells (AlphaScreen cAMP detection); format: cell-based; conditions: for EC50: cAMP, test compounds incubated 60 minutes, 300 μM rolipram, read-out: β2 pEC50 (converted); for β2 Int Act: fraction relative to the maximum activity determined for formoterol, 60 minutes incubation
T1 construct: endogenous in cells; host or cells: H292 cells
T1 sequence (P07550 whole entry): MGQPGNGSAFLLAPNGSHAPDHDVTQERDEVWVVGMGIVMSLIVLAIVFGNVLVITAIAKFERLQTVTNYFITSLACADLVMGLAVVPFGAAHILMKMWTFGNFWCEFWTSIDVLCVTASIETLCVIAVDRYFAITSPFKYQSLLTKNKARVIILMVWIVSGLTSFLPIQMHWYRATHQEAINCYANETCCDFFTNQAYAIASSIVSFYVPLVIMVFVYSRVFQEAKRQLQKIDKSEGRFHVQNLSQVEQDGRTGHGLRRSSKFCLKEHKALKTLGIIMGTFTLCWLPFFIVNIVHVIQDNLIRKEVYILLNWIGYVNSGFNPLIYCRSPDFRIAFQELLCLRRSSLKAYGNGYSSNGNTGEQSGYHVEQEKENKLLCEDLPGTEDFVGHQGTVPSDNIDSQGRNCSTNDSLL
Experimental: H292 cells were grown in 225 cm2 flasks incubator at 37° C., 5% CO2 in RPMI medium containing, 10% (v/v) FBS (foetal bovine serum) and 2 mM L-glutamine.
Adherent H292 cells were removed from tissue culture flasks by treatment with Accutase™ cell detachment solution for 15 minutes. Flasks were incubated for 15 minutes in a humidified incubator at 37° C., 5% CO2. Detached cells were re-suspended in RPMI media (containing 10% (v/v) FBS and 2 mM L-glutamine) at 0.05×10^6 cells per mL. 5000 cells in 100 μL were added to each well of a tissue-culture-treated 96-well plate and the cells incubated overnight in a humidified incubator at 37° C., 5% CO2. The culture media was removed and cells were washed twice with 100 μL assay buffer and replaced with 50 μL assay buffer (HBSS solution containing 10 mM HEPES pH7.4 and 5 mM glucose). […] Cells were incubated with rolipram for 10 minutes after which time test compounds were added and the cells were incubated for 60 minutes at room temperature. […] The reaction was stopped by removing supernatants, washing once with 100 μL assay buffer and replacing with 50 μL lysis buffer. The cell monolayer was frozen at −80° C. for 30 minutes (or overnight).
The concentration of cAMP (cyclic adenosine monophosphate) in the cell lysate was determined using AlphaScreen™ methodology. The frozen cell plate was thawed for 20 minutes on a plate shaker then 10 μL of the cell lysate was transferred to a 96-well white plate. 40 μL of mixed AlphaScreen™ detection beads pre-incubated with biotinylated cAMP, was added to each well and the plate incubated at room temperature for 10 hours in the dark. The AlphaScreen™ signal was measured using an EnVision spectrophotometer (Perkin-Elmer Inc.) with the recommended manufacturer's settings. cAMP concentrations were determined by reference to a calibration curve determined in the same experiment using standard cAMP concentrations. Concentration response curves for agonists were constructed and data was fitted to a four parameter logistic equation to determine both the pEC50 and Intrinsic Activity.

[2] = molecular target: T2, β2 receptor (Homo sapiens, UniProt P07550); assay: Adrenergic β2 mediated cAMP production in H292 cells (AlphaScreen cAMP detection); format: cell-based; conditions: for EC50: cAMP, test compounds incubated 10 minutes, 300 μM rolipram; for Intrinsic Activity: fraction relative to the maximum activity determined for formoterol, 10 minutes incubation
T2 construct: endogenous in cells; host or cells: H292 cells
T2 sequence (P07550 whole entry): as above
Experimental: H292 cells were grown in RPMI (Roswell Park Memorial Institute) medium containing, 10% (v/v) FBS (foetal bovine serum) and 2 mM L-glutamine. Cells were grown in 225 cm2 flasks containing 25 mL media in a humidified incubator at 37° C., 5% CO2. Cells were harvested from the flask and passaged at a 1 in 10 dilution once per week.
The media from flasks containing H292 cells was removed, rinsed with 10 mL PBS (phosphate buffered saline) and replaced with 10 mL Accutase™ cell detachment solution. Flasks were incubated for 15 minutes in a humidified incubator at 37° C., 5% CO2. The cell suspension was counted and the cells re-suspended in RPMI media (containing 10% (v/v) FBS and 2 mM L-glutamine) at 0.05×10^6 cells per mL. 5000 cells in 100 μL were added to each well of a tissue-culture-treated 96-well plate and the cells incubated overnight in a humidified incubator at 37° C., 5% CO2. The culture media was removed, washed twice with 100 μL assay buffer and replaced with 50 μL assay buffer. Cells were rested at room temperature for 20 minutes after which time 25 μL of rolipram (1.2 mM made up in assay buffer containing 2.4% (v/v) dimethylsulphoxide) was added. Cells were incubated with rolipram for 10 minutes after which time test compounds (made up as ×4 concentrated stocks in assay buffer containing 4% (v/v) dimethylsulphoxide) were added and the cells were incubated for 10 minutes at room temperature. Final rolipram concentration in the assay was 300 μM and final vehicle concentration was 1.6% (v/v) dimethylsulphoxide. The reaction was stopped by removing supernatants, washing once with 100 μL assay buffer and replacing with 50 μL lysis buffer. The cell monolayer was frozen at −80° C. for 30 minutes (or overnight).
The concentration of cAMP (cyclic adenosine monophosphate) in the cell lysate was determined using the AlphaScreen™ methodology. The frozen cell plate was thawed for 20 minutes on a plate shaker then 10 μL of the cell lysate was transferred to a 96-well white plate. 40 μL of mixed AlphaScreen™ detection beads (containing equal volumes of donor beads (pre-incubated with biotinylated cAMP in the dark for 30 minutes) and acceptor beads), was added to each well and the plate incubated at room temperature for 10 hours in the dark. The AlphaScreen™ signal was measured using an EnVision spectrophotometer (Perkin-Elmer Inc.) with the recommended manufacturer's settings. cAMP concentrations were determined by reference to a calibration curve determined in the same experiment using standard cAMP concentrations (made up in lysis buffer in a 96-well tissue-culture-treated plate and frozen/thawed alongside the test samples) and detected using the same protocol. Concentration response curves for agonists were constructed to determine both the pEC50 and Intrinsic Activity.

[3] = molecular target: T3, recombinant human Dopamine Subtype D2s receptors (Homo sapiens, UniProt P14416); assay: Dopamine D2 selectivity assay, inhibition of [3H]-spiperone binding; conditions: membranes, [3H]-spiperone 0.16 nM; read-out: D2 bind pIC50 (converted)
T3 construct: purchased Perkin Elmer
T3 sequence (P14416 1-414 isoform P14416-2): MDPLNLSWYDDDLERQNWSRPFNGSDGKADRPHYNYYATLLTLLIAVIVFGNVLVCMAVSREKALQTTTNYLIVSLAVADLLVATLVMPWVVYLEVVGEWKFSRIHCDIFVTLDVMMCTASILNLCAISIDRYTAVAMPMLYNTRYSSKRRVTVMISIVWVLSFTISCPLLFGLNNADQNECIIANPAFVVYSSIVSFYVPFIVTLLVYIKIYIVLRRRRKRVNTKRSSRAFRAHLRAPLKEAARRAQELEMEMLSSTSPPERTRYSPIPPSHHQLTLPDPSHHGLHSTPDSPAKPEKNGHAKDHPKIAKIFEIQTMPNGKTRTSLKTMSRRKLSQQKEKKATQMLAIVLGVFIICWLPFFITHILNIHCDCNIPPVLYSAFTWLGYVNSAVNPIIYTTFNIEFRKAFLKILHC
Experimental: Membranes containing recombinant human Dopamine Subtype D2s receptors were obtained from Perkin Elmer. These were diluted in Assay Buffer ([…] HEPES, 1 mM EDTA, 120 mM NaCl, 0.1% gelatin, pH 7.4) to provide a final concentration of membranes that gave a clear window between maximum and minimum specific binding.
Assays were performed in U-bottomed 96-well polypropylene plates. […] For each assay plate 8 replicates were obtained for [^3H]-spiperone binding in the presence of 30 μL vehicle (10% (v/v) DMSO in Assay Buffer; defining maximum binding) or 30 μL Haloperidol (10 μM final concentration; defining non-specific binding (NSB)). Membranes were then added to achieve a final volume of 300 μL. The plates were incubated for 2 hours at room temperature and then filtered onto PEI coated GF/B filter plates, pre-soaked for 1 hour in Assay Buffer, using a 96-well plate Tomtec cell harvester. Five washes with 250 μL wash buffer (50 mM HEPES, 1 mM EDTA, 120 mM NaCl, pH 7.4) were performed at 4° C. to remove unbound radioactivity. The plates were dried then sealed from underneath using Packard plate sealers and MicroScint-O (50 μL) was added to each well. The plates were sealed (TopSeal A) and filter-bound radioactivity was measured with a scintillation counter (TopCount, Packard BioScience) using a 3-minute counting protocol. Total specific binding (B0) was determined by subtracting the mean NSB from the mean maximum binding. NSB values were also subtracted from values from all other wells.

Row | EC50 [1] | β2 Int Act [1] | EC50 [2] | Intrinsic Activity [2] | IC50 [3] | Compound
1 | 3.16 nM | 1 | 5.01 nM | 0.8 |  | CN(CCCSCCNC[C@H](O)c1ccc(O)c2[nH]c(=O)sc12)CCc1ccccc1 [Example 12, 4-Hydroxy-7-((1R)-1-hydroxy-2-{[2-({3-[methyl(2-phenylethyl)amino]propyl}-thio)ethyl]amino}ethyl)-1,3-benzothiazol-2(3H)-one trifluoroacetate]
2 |  | 1 |  | 1.0 | 1000 nM | Cl.O=c1[nH]c2c(O)ccc([C@@H](O)CNCCSCCCOCCc3ccccc3)c2s1 [Example 8, 4-Hydroxy-7-{(1R)-1-hydroxy-2-[(2-{[3-(2-phenylethoxy)propyl]thio}-ethyl)amino]ethyl}-1,3-benzothiazol-2(3H)-one hydrochloride]
3 | 0.0501 nM | 0.9 | 0.0631 nM | 0.7 |  | Cl.O=c1[nH]c2c(O)ccc([C@@H](O)CNCCCSCCCOCCc3ccc(Br)cc3)c2s1 [Example 5, 7-((1R)-2-{[3-({3-[2-(4-Bromophenyl)ethoxy]propyl}thio)propyl]amino}-1-hydroxyethyl)-4-hydroxy-1,3-benzothiazol-2(3-H)-one hydrochloride]
